Measured values taken from ChEMBL document CHEMBL1201862, “PubChem BioAssay data set” (2004).
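48-hour exposure; five concentrations; linearly interpolated endpoints. GI50: concentration for 50% inhibition of growth.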 Active and inactive are the calls of the source. Cut-off read from the data, not from the text of the source: active = GI50 up to about 1.1 µM and inactive = higher. Non-standard residues stand in square brackets, D forms with d. Residues, ends and D or L forms follow the SMILES beside them. ξ: configuration not given here. *: point of attachment. X18 = COC1=CC(=O)N(C(=O)C(O*)C(C)C)C1Cc1ccccc1; ξNMe2Val = CC(C)C(C(=O)*)N(C)C; NMeV = CN[CH](C(=O)O)C(C)C

Legend:
Experiment in all cases: NCI-60 cell line screen, 48 h
ACHN = test system: ACHN
SF-539 = test system: SF-539
T47D = test system: T47D
SN12C = test system: SN12C
OVCAR-5 = test system: OVCAR-5
HT-29 = test system: HT-29
SK-MEL-5 = test system: SK-MEL-5
HCT-15 = test system: HCT-15
KM12 = test system: KM12
NCI-H23 = test system: NCI-H23
HOP-62 = test system: HOP-62
RXF 393 = test system: RXF 393
U-251 = test system: U-251
SF-268 = test system: SF-268
Hs-578T = test system: Hs-578T
Malme-3M = test system: Malme-3M
OVCAR-4 = test system: OVCAR-4
BT-549 = test system: BT-549
SNB-75 = test system: SNB-75
UACC-257 = test system: UACC-257

Row | Structure (SMILES) | GI50 (ACHN) | GI50 (SF-539) | GI50 (T47D) | GI50 (SN12C) | GI50 (OVCAR-5) | GI50 (HT-29) | GI50 (SK-MEL-5) | GI50 (HCT-15) | GI50 (KM12) | GI50 (NCI-H23) | GI50 (HOP-62) | GI50 (RXF 393) | GI50 (U-251) | GI50 (SF-268) | GI50 (Hs-578T) | GI50 (Malme-3M) | GI50 (OVCAR-4) | GI50 (BT-549) | GI50 (SNB-75) | GI50 (UACC-257)
1 | COC1=CC(=O)N(C(=O)C(OC(=O)C2CCCN2C(=O)C2CCCN2C(=O)C(C(C)C)N(C)C(=O)C(NC(=O)C(C(C)C)N(C)C)C(C)C)C(C)C)C1Cc1ccccc1 (stereo not drawn) (ξNMe2Val-V[NMeV]PP-X18; configuration not given here) | 0.00931 µM (active) | 0.00135 µM (active) | < 0.01 µM (active) | 0.00188 µM (active) | < 0.01 µM (active) | 0.000573 µM (active) | 0.00109 µM (active) | 0.0014 µM | 0.00238 µM (active) | 0.00315 µM (active) | 0.00461 µM (active) | 0.00164 µM (active) | 0.00235 µM (active) | 0.00189 µM (active) | 0.000188 µM (active) | 0.0027 µM (active) | 0.00826 µM (active) | 0.00046 µM (active) | 0.0018 µM (active) | 0.0025 µM (active)
2 | OCCCCCNc1nc(O)c2[nH]cnc2n1 | > 100 µM (inactive) | 8.17 µM (inactive) | > 100 µM (inactive) | > 100 µM (inactive) | > 100 µM (inactive) | > 100 µM (inactive) | > 100 µM (inactive) | > 100 µM | > 100 µM (inactive) | > 100 µM (inactive) | > 100 µM (inactive) | > 10 µM (inactive) | > 100 µM (inactive) | > 100 µM (inactive) | 90.8 µM (inactive) | > 100 µM (inactive) | > 100 µM (inactive) | > 100 µM (inactive) | > 100 µM (inactive) | > 100 µM (inactive)
3 | Cc1nc(-c2ccc(/N=C/c3ccc(N(CCOS(C)(=O)=O)CCOS(C)(=O)=O)cc3C)cc2)cs1 | 3.82 µM (inactive) | 3.04 µM (inactive) | 7.23 µM (inactive) | 27.8 µM (inactive) | 30.8 µM (inactive) | 30.3 µM (inactive) | 11.4 µM (inactive) | 77.6 µM | 32.1 µM (inactive) | 35.4 µM (inactive) | 35.1 µM (inactive) | 25.1 µM (inactive) | 36.9 µM (inactive) | 5.14 µM (inactive) | 88.3 µM (inactive) | 28.9 µM (inactive) | 59.6 µM (inactive) | 28.2 µM (inactive) | 40.9 µM (inactive) | 22.8 µM (inactive)
4 | CCC(CCN)(CCN)[N+](=O)[O-] | – | > 100 µM (inactive) | > 100 µM (inactive) | > 100 µM (inactive) | > 100 µM (inactive) | > 100 µM (inactive) | > 100 µM (inactive) | > 100 µM | > 100 µM (inactive) | – | – | > 100 µM (inactive) | > 100 µM (inactive) | > 100 µM (inactive) | > 100 µM (inactive) | > 100 µM (inactive) | – | > 100 µM (inactive) | > 100 µM (inactive) | > 100 µM (inactive)
5 | COc1cccc(/C=C2\N=C(c3ccccc3)OC2=O)c1 | > 100 µM (inactive) | 43.1 µM (inactive) | > 100 µM (inactive) | 65.2 µM (inactive) | > 100 µM (inactive) | > 100 µM (inactive) | 50.5 µM (inactive) | 34 µM | 73.5 µM (inactive) | > 100 µM (inactive) | 61.1 µM (inactive) | > 100 µM (inactive) | 63.7 µM (inactive) | > 100 µM (inactive) | 22.5 µM (inactive) | – | 53.6 µM (inactive) | 40.6 µM (inactive) | 16.1 µM (inactive) | > 100 µM (inactive)
6 | c1ccc(CNCCCNCCCCNCCCNCc2ccccc2)cc1 | 6.05 µM (inactive) | 1.76 µM (inactive) | 10.8 µM (inactive) | 3.72 µM (inactive) | 5.22 µM (inactive) | 1.92 µM (inactive) | 7.85 µM (inactive) | 15.8 µM | 5.52 µM (inactive) | 2.38 µM (inactive) | 4.15 µM (inactive) | 12.4 µM (inactive) | 7.87 µM (inactive) | 12.2 µM (inactive) | 1.91 µM (inactive) | 2.02 µM (inactive) | 13.8 µM (inactive) | 16.7 µM (inactive) | 8.91 µM (inactive) | 15 µM (inactive)
7 | COc1ccc(C)cc1NC(=S)N/N=C/c1ccc(SC)cc1 | > 100 µM (inactive) | 27.8 µM (inactive) | 60.7 µM (inactive) | > 100 µM (inactive) | 25.1 µM (inactive) | 34.1 µM (inactive) | 21.6 µM (inactive) | 39.6 µM | 67.5 µM (inactive) | 50.2 µM (inactive) | 28.8 µM (inactive) | 58.5 µM (inactive) | – | > 100 µM (inactive) | > 100 µM (inactive) | 96.4 µM (inactive) | 57.8 µM (inactive) | 49.3 µM (inactive) | > 100 µM (inactive) | –
8 | N#CCCN(CCCN(C(=O)Nc1ccc(NC(=O)N(CCCN(CCC#N)C(N)=O)c2ccccc2)cc1)c1ccccc1)C(N)=O | > 100 µM (inactive) | > 100 µM (inactive) | > 100 µM (inactive) | – | > 100 µM (inactive) | > 100 µM (inactive) | > 100 µM (inactive) | > 100 µM | > 100 µM (inactive) | > 100 µM (inactive) | > 100 µM (inactive) | > 100 µM (inactive) | > 100 µM (inactive) | > 100 µM (inactive) | > 100 µM (inactive) | > 100 µM (inactive) | > 100 µM (inactive) | > 100 µM (inactive) | 67.5 µM (inactive) | > 100 µM (inactive)
9 | N=C(N)NS(=O)(=O)c1ccc(/N=N/c2c(O)c(C(=O)O)cc3ccccc23)cc1 | > 100 µM (inactive) | > 100 µM (inactive) | > 100 µM (inactive) | > 100 µM (inactive) | > 100 µM (inactive) | > 100 µM (inactive) | > 100 µM (inactive) | > 100 µM | > 100 µM (inactive) | > 100 µM (inactive) | > 100 µM (inactive) | > 100 µM (inactive) | > 100 µM (inactive) | > 100 µM (inactive) | > 100 µM (inactive) | > 100 µM (inactive) | > 100 µM (inactive) | > 100 µM (inactive) | > 100 µM (inactive) | > 100 µM (inactive)
10 | CC(C)(C)NC(=O)N1N=C(c2ccccc2)C1c1ccccc1 (stereo not drawn) | 34.5 µM (inactive) | 22.1 µM (inactive) | 42.7 µM (inactive) | 43.5 µM (inactive) | > 100 µM (inactive) | 18 µM (inactive) | 20.2 µM (inactive) | 23.9 µM | 47.6 µM (inactive) | 35.9 µM (inactive) | – | 14 µM (inactive) | 69.3 µM (inactive) | 66.5 µM (inactive) | 48.3 µM (inactive) | 25.3 µM (inactive) | 56.5 µM (inactive) | 29.9 µM (inactive) | 87.1 µM (inactive) | 25.5 µM (inactive)
11 | O=C1C[C@@H](c2ccccc2)O[C@@H](c2ccccc2)C1 | – | > 100 µM (inactive) | > 100 µM (inactive) | 84.7 µM (inactive) | > 100 µM (inactive) | > 100 µM (inactive) | > 100 µM (inactive) | > 100 µM | > 100 µM (inactive) | > 100 µM (inactive) | > 100 µM (inactive) | > 100 µM (inactive) | > 100 µM (inactive) | > 100 µM (inactive) | > 100 µM (inactive) | > 100 µM (inactive) | > 100 µM (inactive) | > 100 µM (inactive) | > 100 µM (inactive) | > 100 µM (inactive)
12 | C=CC(c1ccccc1)C1(O)c2cccc(O)c2C(=O)c2c(O)cccc21 (stereo not drawn) | 17.8 µM (inactive) | 29.3 µM (inactive) | 16.9 µM (inactive) | – | 22.1 µM (inactive) | 11.5 µM (inactive) | 17.3 µM (inactive) | 10.8 µM | 12.8 µM (inactive) | 13.4 µM (inactive) | 17.3 µM (inactive) | 14.2 µM (inactive) | 11.7 µM (inactive) | 17.3 µM (inactive) | 15.8 µM (inactive) | – | 13.7 µM (inactive) | 16.7 µM (inactive) | 20.5 µM (inactive) | 17.8 µM (inactive)
13 | O=C1CCSSCCC(=O)Nc2ccccc2N1 | > 100 µM (inactive) | > 100 µM (inactive) | > 100 µM (inactive) | > 100 µM (inactive) | > 100 µM (inactive) | > 100 µM (inactive) | > 100 µM (inactive) | > 100 µM | > 100 µM (inactive) | > 100 µM (inactive) | > 100 µM (inactive) | > 100 µM (inactive) | > 100 µM (inactive) | > 100 µM (inactive) | > 100 µM (inactive) | > 100 µM (inactive) | > 100 µM (inactive) | > 100 µM (inactive) | – | > 100 µM (inactive)
14 | CCCCCCCCCCCCCCCC(=O)OC(COC(C)=O)CO[PH](=O)O (stereo not drawn) | 27.7 µM (inactive) | 20.8 µM (inactive) | 53.2 µM (inactive) | 48.5 µM (inactive) | 16.1 µM (inactive) | – | > 100 µM (inactive) | 24 µM | 18.3 µM (inactive) | – | – | 36 µM (inactive) | 21.6 µM (inactive) | 19.3 µM (inactive) | 11.8 µM (inactive) | 34.8 µM (inactive) | 58.2 µM (inactive) | > 100 µM (inactive) | 22.4 µM (inactive) | 34 µM (inactive)
15 | CNC(=O)c1nc[nH]c1/N=N/N(C)N | – | > 100 µM (inactive) | > 100 µM (inactive) | > 100 µM (inactive) | > 100 µM (inactive) | > 100 µM (inactive) | 49.9 µM (inactive) | > 100 µM | 40.5 µM (inactive) | > 100 µM (inactive) | > 100 µM (inactive) | > 100 µM (inactive) | > 100 µM (inactive) | > 100 µM (inactive) | > 100 µM (inactive) | > 100 µM (inactive) | > 100 µM (inactive) | > 100 µM (inactive) | 80.9 µM (inactive) | > 100 µM (inactive)
